# In EP1218012B1, “USE OF ALPROSTADIL (PROSTAGLANDIN E1) FOR PRODUCING A MEDICAMENT FOR ANGIONEOGENESIS” (Mehrabi, Mohammad Reza, priority 1999, dated 2001):
# Key:
# [1] = test system: Patienten mit CMP; experiment: Capillary density in transmural sections of explanted hearts (immunohistochemistry); assay type: in vivo; details: for Kapillardichte: explanted hearts after infusion therapy
# Excerpt: Um die Frage zu beantworten, ob nun die Alprostadil (PGE1)-Infusionstherapie […] HTX die […] von Patienten mit vorangegangener Alprostadil (PGE 1)-Infusionstherapie und von Patienten ohne alprostadil (PGE 1)-Therapie immunhistochemisch untersucht und die […]. Jedes […] Herz wurde in drei gleich große Stücke, nämlich in Spitze, mittleren und […]. Die […] transmural durch den […] immunohistochemische Analysen wurde sofort […] in Formaldehyd nach der üblichen Methode konserviert. Die […] wurde getrennt im Subepicardium, Myocardium und dem Subendocardium bestimmt. Die Bestimmung […] 1,mm^2 wurde getrennt anhand von anti-CD34, von Willebrand-Faktor (vwf), vascular-endothelial-growth-factor (VEGF) , anti-Ki 67 (MIB 1) und Sirius Rot, immunhistochemisch […]. Die […] Subepicardium, Myocardium und Subendocardium von transmuralen […] wurde quantitativ bestimmt und verglichen. Patienten, die eine Alprostadil (PGE 1)- Infusionen […]. Die […] Subepicardium, Myocardium und Subendocardium von der Kontrollgruppe betrug 608,56 ± 91,32 […]), 542,44 ± 197,20 […]^2 (sEndo), und 452,22 - 101,99 […]^2 (Myo) in den drei transmuralen-[…]. Alprostadil (PGE 1)-behandelte Patienten hatten im Vergleich dazu mit 1168,11 ± 165,04 […]), 1066,00 ± 94,63 […]^2 (SEndo), und 974,56 ± 87,12 […]^2 (Myocard), ungefähr 50% […]. Untersuchung hinsichtlich spezifischer immunohistochemischer […]: […]
# [2] = test system: CD 34; experiment: Anti-CD34 reactive endothelium in explanted hearts (immunohistochemistry); assay type: in vivo, Patienten
# Excerpt: Um die Frage zu beantworten, ob nun die Alprostadil (PGE1)-Infusionstherapie […] HTX die […] von Patienten mit vorangegangener Alprostadil (PGE 1)-Infusionstherapie und von Patienten ohne alprostadil (PGE 1)-Therapie immunhistochemisch untersucht und die […]. Jedes […] Herz wurde in drei gleich große Stücke, nämlich in Spitze, mittleren und […]. Die […] transmural durch den […] immunohistochemische Analysen wurde sofort […] in Formaldehyd nach der üblichen Methode konserviert. Die […] wurde getrennt im Subepicardium, Myocardium und dem Subendocardium bestimmt. Die Bestimmung […] 1,mm^2 wurde getrennt anhand von anti-CD34, von Willebrand-Faktor (vwf), vascular-endothelial-growth-factor (VEGF) , anti-Ki 67 (MIB 1) und Sirius Rot, immunhistochemisch […]. CD 34 wird von allen Endothelzellen im normalen Gewebe exprimiert. CD 34 wird auch zum Nachweis von Endothel bzw. -zellen benutzt. Patienten nach einer Alprostadil (PGE […] Endothel (Fig.1) auf als die Kontrollgruppe (Subepicardium: 599,22 ± 107,17 mm^2 gegenüber 322,89 ± 160,64 mm^2-Zellen, p <0,001; Myocardium: 482,11 ± 79,86 mm^2 vs. 227,22 ± 49,30 mm^2 , p<0.0001; Subendocardium: 482,11 ± 79,86 mm^2 gegenüber 227,22 ± 49,30 mm^2, p <0,0001); Subendocardium: 551,67 ± 107.74 mm^2 gegenüber 308,56 ± 193.86 mm^2, p < 0,01). Die Ergebnisse sind auch in Fig.6A, 8A und 8B dargestellt.
# [3] = test system: Von Willebrand Faktor (vWf); experiment: Anti-vWf (factor VIII related antigen) reactive endothelium in explanted hearts (immunohistochemistry); assay type: in vivo, Patienten
# Excerpt: Um die Frage zu beantworten, ob nun die Alprostadil (PGE1)-Infusionstherapie […] HTX die […] von Patienten mit vorangegangener Alprostadil (PGE 1)-Infusionstherapie und von Patienten ohne alprostadil (PGE 1)-Therapie immunhistochemisch untersucht und die […]. Jedes […] Herz wurde in drei gleich große Stücke, nämlich in Spitze, mittleren und […]. Die […] transmural durch den […] immunohistochemische Analysen wurde sofort […] in Formaldehyd nach der üblichen Methode konserviert. Die […] wurde getrennt im Subepicardium, Myocardium und dem Subendocardium bestimmt. Die Bestimmung […] 1,mm^2 wurde getrennt anhand von anti-CD34, von Willebrand-Faktor (vwf), vascular-endothelial-growth-factor (VEGF) , anti-Ki 67 (MIB 1) und Sirius Rot, immunhistochemisch […] Marker wurde Faktor VIII immunhistochemisch untersucht. Die Herzen von CMP-Patienten nach Alprostadil(PGE 1)-Infusionstherapie zeigten bedeutend […] Endothelien (Abb.2) verglichen mit der Kontrollgruppe (Subepicardium: 425,56 ± 134.17 mm^2 gegenüber 192,22 ± 77,88 mm^2-Zellen, p <0,001; Myocardium: 360,00 ± 52,31 mm^2 gegenüber 159,89 ± 61.00 mm^2 p <0,0001; Subendocardium: 408,00 ± 80,00 mm^2 gegenüber 163,89 ± 47,52 mm^2, p <0,0001). Die Ergebnisse sind auch in Fig.6B, 8C und 8D dargestellt.
# [4] = test system: MIB-1 (anti-Ki67); experiment: MIB-1 (anti-Ki67) positive cells in explanted hearts (proliferation marker); assay type: in vivo, Patienten
# Excerpt: Um die Frage zu beantworten, ob nun die Alprostadil (PGE1)-Infusionstherapie […] HTX die […] von Patienten mit vorangegangener Alprostadil (PGE 1)-Infusionstherapie und von Patienten ohne alprostadil (PGE 1)-Therapie immunhistochemisch untersucht und die […]. Jedes […] Herz wurde in drei gleich große Stücke, nämlich in Spitze, mittleren und […]. Die […] transmural durch den […] immunohistochemische Analysen wurde sofort […] in Formaldehyd nach der üblichen Methode konserviert. Die […] wurde getrennt im Subepicardium, Myocardium und dem Subendocardium bestimmt. Die Bestimmung […] 1,mm^2 wurde getrennt anhand von anti-CD34, von Willebrand-Faktor (vwf), vascular-endothelial-growth-factor (VEGF) , anti-Ki 67 (MIB 1) und Sirius Rot, immunhistochemisch […]. MIB-1 (anti-Ki67), ist ein Antikörper, der nur […], die nicht in der GO-Phase des Zellzyklus sind und wird üblicher Weise als Mitose- oder Proliferationsmarker eingesetzt. Er zeigt […] Reaktion bei mitotischen Zellen. Bei der Gruppe der Patienten mit Alprostadil(PGE 1)-Infusionstherapie war die Anzahl der MIB-1 positiven Zellen (Fig.3) in allen […] des Herzmuskels deutlich höher verglichen mit der Kontrollgruppe: (Subepicardium: 20,22 ± 4,87 pro mm^2 gegenüber 8,11 ± 2,67 pro mm^2, p <0,0001; Myocardium: 15,44 ± 4,64 pro mm^2 gegenüber 5,78 ± 2,11 pro mm^2, p <0,0001; Subendocardium: 17,84 ± 4,23 pro mm^2 gegenüber 6,89 ± 2,21 pro mm2). Die Ergebnisse sind auch in Fig.6C, 8G und 8H dargestellt.
# [5] = test system: VEGF; experiment: VEGF-positive capillaries in explanted hearts (immunohistochemistry); assay type: in vivo, Patienten
# Excerpt: Um die Frage zu beantworten, ob nun die Alprostadil (PGE1)-Infusionstherapie […] HTX die […] von Patienten mit vorangegangener Alprostadil (PGE 1)-Infusionstherapie und von Patienten ohne alprostadil (PGE 1)-Therapie immunhistochemisch untersucht und die […]. Jedes […] Herz wurde in drei gleich große Stücke, nämlich in Spitze, mittleren und […]. Die […] transmural durch den […] immunohistochemische Analysen wurde sofort […] in Formaldehyd nach der üblichen Methode konserviert. Die […] wurde getrennt im Subepicardium, Myocardium und dem Subendocardium bestimmt. Die Bestimmung […] 1,mm^2 wurde getrennt anhand von anti-CD34, von Willebrand-Faktor (vwf), vascular-endothelial-growth-factor (VEGF) , anti-Ki 67 (MIB 1) und Sirius Rot, immunhistochemisch […]. VEGF ist beschrieben als spezifischer Wachstumsfaktor für Endothelzellen. Alprostadil (PGE 1)-behandelte Patienten zeigten bedeutend mehr VEGF-positive […] als die Kontrollgruppe (Fig.4) in allen drei untersuchten Abschnittsebenen (Subepicardium: 101,2 ± 5,5/mm^2 gegenüber 38.1 ± 7,2-VEGF-positive Zellen/mm^2, p <0,0001; Myocardium 76,2 ± 4,9/mm^2 gegenüber 20,6 ± 4,9/mm^2, p <0,0001; Subendocardium: 89,1 ± 5,7/mm^2 gegenüber 27,8 ± 5,1/mm^2, p <0,0001). Die Ergebnisse sind auch in Fig.6D, 8E und 8F dargestellt.
# [6] = test system: Patienten mit dilatativer CMP; experiment: Fibrosis degree and heart muscle fraction (Sirius red staining) in explanted hearts; assay type: in vivo; details: patients with dilated CMP
# Excerpt: Die […] wurde getrennt im Subepicardium, Myocardium und dem Subendocardium bestimmt. Die Bestimmung […] 1,mm^2 wurde getrennt anhand von anti-CD34, von Willebrand-Faktor (vwf), vascular-endothelial-growth-factor (VEGF) , anti-Ki 67 (MIB 1) und Sirius Rot, immunhistochemisch […]. Die Bestimmung des Fibrosegrads und des Herzmuskelanteils bei Alprostadil (PGE 1)-behandelten Patienten (Fig.5) gegenüber der Kontrollgruppe zeigte, dass die Alprostadil (PGE1)- Infusionstherapie den Fibrosegrad bei […] CMP […] (15,35 ± 10,32% gegenüber 6,89 ± 3,59%, p <0,05, bei einem vergleichbaren Herzmuskelanteil (72,69 ± 5,25% gegenüber 68,75 ± 6,23%).
# [7] = test system: Patienten; experiment: Hypertrophy: muscle count and percent muscle fraction per mm^2; assay type: in vivo; details: treated patients
# Excerpt: In PGE1-behandelten Patienten wurden Muskelzahl/mm^2 mit prozentuellem Muskelanteil/mm^2 bestimmt und mit unbehandelten Patienten und gesunden Kontrollen verglichen. Die Ergebnisse sind in der nachfolgenden Tabelle angegeben.
# [8] = test system: Patienten mit CMP; experiment: Clinical infusion therapy study in CMP patients awaiting heart transplantation (haemodynamics, clinical state, maximum tolerated dose); assay type: in vivo
# Excerpt: Patienten mit CMP wurden für eine Herztranslation (HTX) angemeldet und medikamentös mit ACE-Hemmern, β-Blocker, Diuretika und Digitalis behandelt.
# In einer vorangegangenen Studie erhielten mehrere Patienten mit Kardiomyopathie, darunter 9 Patienten mit dilatativer CMP vor einer HTX zusätzlich eine Alprostadil (PGE 1)-Infusionstherapie.
# Die Einschlusskriterien für die Alprostadil (PGE 1)-Studie waren: • a. Patienten waren in ihrer täglichen Aktivität schwerwiegend eingeschränkt, obwohl sie eine maximale oralmedikamentöse Therapie mit ACE-Hemmer (Angiotensin-Converting-Enzym-Antagonisten), Diuretika und Digitalis bekamen. • b. Die Hämodynamik der Patienten zeigte einen niedrigen Herz-Index (< 2,5 L/min/m2) und einen höheren PCWP (pulmonory capillary wedge pressure) > 20 mm HG). • c. CMP-Patienten, die einen erhöhten peripheren Gefäßwiderstand aufweisen.
# Die Infusionstherapie erfolgte unter laufender Messung der hämodynamischen Parameter. […] In dieser klinisch-experimentellen Studie wurde die Alprostadil (PGE1)-Infusionstherapie bei Patienten im Endstadium der Herizinsuffizienz im Sinne einer adjuvanten Therapie bis zur HTX verwendet.
# Die Alprostadil (PGE1)-Infusionen erfolgten über einen zentralen Rechtsherzkatheter (Hickman-Katheter) mit einer anfänglichen Dosis von 2,5 ng/kg/min, die dann bis zur maximal tolerierten Dosis (MTD) gesteigert wurde. MTD war die Dosis, bei der eine der folgenden Nebenwirkungen auftraten: Muskelschmerzen, Knochenschmerzen, Blutdruckabfall, Übelkeit, Erbrechen, Durchfall, Kopfschmerzen oder andere Nebvenwirkungen. Unter der MTD (29 ± 1 ng/kg/min) wurden die hämodynamischen Parameter dokumntiert. Die MTD wurde in den folgenden 12 Stunden halbiert und nach der Stabilisierung der Hämodynamik wurde die Therapie mit einer tragbaren Pumpe zu Hause fortgesetzt.
# [9] = test system: Patienten mit chronischer Herzinsuffizien; details: compared with the dobutamine-treated group; cited from earlier work
# [10] = test system: Patienten mit akutem Leberversagen; details: treatment begun only 10 days after onset of clinical symptoms; cited from earlier work
# [11] = test system: Tierversuche; details: infused directly into hepatic veins, treated group; cited from earlier work
compound,measurement,setting,value
"CCCCC[C@H](O)/C=C/[C@H]1[C@H](O)CC(=O)[C@@H]1CCCCCCC(=O)O [Alprostadil, Prostaglandin E1]",Kapillardichte,[1]; Myocardium (Myocard),"974,56 ± 87,12 Kapillaren/mm^2"
same,Kapillardichte,[1]; Subendocardium (SEndo),"1066,00 ± 94,63 Kapillaren/mm^2"
same,Kapillardichte,[1]; Subepicardium (sEpi),"1168,11 ± 165,04 Kapillaren/mm^2"
same,mehr Kapillaren als die Kontrollgruppe,[1]; treated patients versus control group,~50%
same,anti-CD34 reaktives Endothel,[2]; Myocardium,"482,11 ± 79,86 mm^2"
same,anti-CD34 reaktives Endothel,[2]; Subendocardium,"482,11 ± 79,86 mm^2"
same,anti-CD34 reaktives Endothel,[2]; Subepicardium,"599,22 ± 107,17 mm^2"
same,anti-vWf reaktive Endothelien,[3]; Myocardium,"360,00 ± 52,31 mm^2"
same,anti-vWf reaktive Endothelien,[3]; Subendocardium,"408,00 ± 80,00 mm^2"
same,Anzahl der MIB-1 positiven Zellen,[4]; Myocardium,"15,44 ± 4,64 pro mm^2"
same,Anzahl der MIB-1 positiven Zellen,[4]; Subendocardium,"17,84 ± 4,23 pro mm^2"
same,Anzahl der MIB-1 positiven Zellen,[4]; Subepicardium,"20,22 ± 4,87 pro mm^2"
same,VEGF-positive Kapillaren/mm^2,[5]; Myocardium,"76,2 ± 4,9 /mm^2"
same,VEGF-positive Kapillaren/mm^2,[5]; Subendocardium,"89,1 ± 5,7 /mm^2"
same,VEGF-positive Kapillaren/mm^2,[5]; Subepicardium,"101,2 ± 5,5 /mm^2"
same,Fibrosegrad,[6],"6,89 ± 3,59%"
same,Herzmuskelanteil,[6],"72,69 ± 5,25%"
same,% Muskelanteil/mm^2,[7],"74,9 ± 3,7%"
same,Muskelzahl/mm^2,[7],"982,68 ± 141,43 /mm^2"
same,klinischer Zustand,"[8]; end-stage heart failure, with increased ejection fraction and cardiac output, reduced NYHA stage and pulmonary circulation pressures",deutliche Verbesserung
same,maximal tolerierte Dosis (MTD),"[8]; infusion via central right-heart catheter, escalated from 2,5 ng/kg/min until side effects occurred",29 ± 1 ng/kg/min
same,hämodynamische Parameter im Vergleich zu den Ausgangswerten,[8]; under infusion therapy,deutliche Verbesserung
same,"Nierenfunktion (Paraaminohippurat-Clearance, Iothalamat-Clearance)",[9],bessere Nierenwerte
same,hämodynamischer Effekt,[9],besseren hämodynamischen Effekt
same,Wirkung bei akutem Leberversagen,[10],keine Wirkung
same,Leukozyten (serologisch),[11],mehr Leukozyten
